# Assay results: patent publication US10377731B2, “Compositions and methods for cancer treatment” (Boston Biomedical, Inc., priority 2007, dated 2019)
# Entries after “also recorded” stand apart in the source; their conditions may differ.
# Experiments:
# Format in all cases: cell-based
# [1] = system: Hoechst side population cells; experiment: Annexin V staining of Hoechst side population cells; settings: Hoechst side population cells treated with compound
# Procedure: Hoechst Side Population: To identify and isolate side population (SP) and non-SP fractions, SW480 cells were removed from the culture dish with trypsin and EDTA, pelleted by centrifugation, washed with phosphate-buffered saline (PBS), and resuspended at 37° C. in Dulbecco's modified Eagle's medium (DMEM) containing 2% FBS and 1 mM HEPES. The cells were then labeled with Hoechst 33342 (Invitrogen) at a concentration of 5 μg/mL. The labeled cells were incubated for 120 minutes at 37° C., either alone or with 50 μM verapamil (Sigma-Aldrich, St. Louis). After staining, the cells were suspended in Hanks' balanced saline solution (HBSS; Invitrogen) containing 2% FBS and 1 mM HEPES, passed a through 40 μm mesh filter, and maintained at 4° C. until flow cytometry analysis. The Hoechst dye was excited at 350 nm, and its fluorescence was measured at two wavelengths using a 450 DF10 (450/20 nm band-pass filter) and a 675LP (675 nm long-pass edge filter) optical filter. The gating on forward and side scatter was not stringent, and only debris was excluded.
# Analysis of Apoptosis: Cells treated with or without compound were harvested at 5 hours post treatment for Annexin-V staining. Collected cells were washed with PBS and resuspended in Annexin-V-FITC containing buffer and stained according to manufactures directions (Roche). Annexin-V positive cells were determined by Flow cytometry. […]
# [2] = system: Paca2 human pancreatic cancer cells; experiment: Colony formation, Paca2 cells, single drugs and combinations; settings: Homo sapiens, read-out: Compound 401 (% Inhibition)
# Procedure: (§1) Paca2 human pancreatic cancer cells, A549 human lung cancer cells, and HepG2 human liver cancer cells (American Type Culture Collection) were cultured in Dulbecco's modified Eagle's medium containing 10% fetal bovine serum, 100 units/mL penicillin, 100 μg/mL streptomycin, and 2 mM L-glutamine. […] Erlotinib was from American Custom Chemicals (San Diego, Calif.). Gemcitabine was from Eli Lilly (Indianapolis, Ind.) in an aqueous 20 mM stock solution. Sorafenib was Mass.). Unless otherwise noted all compounds were solubilized in DMSO at 10 mM and aliquoted at −20° C. Exponentially growing Paca2 pancreatic cancer cells were seeded at 1,000 cells per well in 6-well plates and allowed to attach for 24 hours. Increasing concentrations of individual drugs and those in combination were then added to the media for another 24 hours. After 24 hours exposure, the drug was removed and fresh media was added for the next 10-14 days, allowing for colony formation. Cells were fixed and stained with GIEMSA (Gibco BRL). […] Results are an average of duplicate experiments. Alternatively, MTT assays were performed 72 hours post-treatment in A549 and HepG2 cells.
# [3] = system: HepG2 human liver cancer cells; experiment: 72 hour MTT, HepG2 cells, single drugs and combinations; settings: read-out: Compound 401 (% Inhibition)
# Procedure: Cell Viability Determination: For 3-(4,5 dimethylthiazol-2-yl)-2,5-diphenyltetrazolium (MTT) (Sigma-Aldrich, St. Louis, Mo.) analysis, cells were plated in 96 well plates at 10,000 cells per well. 24 hours after plating, compound was added to cells at indicated doses. […] following compound addition, MTT was added to each well (0.5 mg/ml, final concentration) and plates were incubated for an additional 2 hours at 37° C. Medium was then aspirated and the formazan product was solubilized in 100 μl of isopropyl alcohol. The absorbance of each well was measured at 570 nm using a microplate reader.
# as §1
# CD133+ cells = experiment: Cleaved-Caspase 3 staining of CD133+ cells; settings: CD133+ cells enriched with antibody magnetic beads
# Excerpt: CSC isolation with surface markers: Sorting tumor cells based primarily upon the differential expression of the surface marker(s), such as CD44 or CD133, have accounted for the majority of the highly tumorigenic CSCs described to date. CD133 isolation is based upon the method of Ricci-Vitiani et al., with slight modification. CD133^+ cells were isolated by either fluorescence activated cell sorting (FACS) or magnetic nanoparticle-based separation. Briefly, 10^7 cells/mL were labeled with CD133/1 (AC133)-PE for FACS-based cell sorting; or with CD133/1 (AC133)-biotin (Miltenyi Biotec, Auburn, Calif.) for magnetic field-based separation using the EasySep® biotin selection kit (Miltenyi Biotec) according to the manufacturer's recommendations. Non-specific labeling was blocked with the supplied FcR blocking reagent and antibody incubations (1:11) were carried out on ice for 15 minutes in PBS with 2% FBS and 1 mM EDTA. Five washes were done for EasySep® isolation, whereas cells were pelleted at 400×g for 5 minutes and resuspended at 2×10^7/mL, before sorting by FACS.
# Immunofluorescence: Cells treated with indicated compound for an indicated time were either fixed in 4% formaldehyde or cold methanol for the detection of Annexin V, cleaved caspase 3, or stat3, respectively. Coverslips were air dried and rehydrated in PBS at room temperature for 10 min. […]
structure (smiles),measurement,setting,value
"CC(=O)c1cc2c(o1)C(=O)c1ccccc1C2=O [Compound 401, 2-acetylnaphtho[2,3-b]furan-4,9-dione]","Mode of cell death, Annexin V staining",[1],dying cells are Annexin V positive; also recorded: apoptotic
same,inhibition at 0.066 µM,"[2]; PaCa-2, 401 alone 66 nM",32%
same,inhibition at 0.133 µM,"[2]; PaCa-2, 401 alone 133 nM",66%
same,inhibition at 0.125 µM,[3]; 401 alone 125 nM,7%
same,inhibition at 0.25 µM,[3]; 401 alone 250 nM,43%
same,Cleaved-Caspase 3 staining (apoptosis),CD133+ cells,many of the CD133^+ cells become cleaved-Caspase 3 positive; also recorded: apoptotic
